In US9211310B2, “Use of a Chinese medicine composition in preparing medicaments for treating secondary prevention of myocardial infarction” (TASLY PHARMACEUTICAL GROUP CO., LTD, priority 2010, dated 2015):

Tested on: patients after acute myocardial infarction
Test: TCM symptom score, total and single (chest pain, chest tightness, short breath, fatigue, palpitation, spontaneous perspiration, pale complexion), same clinical trial
Assay type: in vivo, human
Design: total score of TCM symptom, Mean / total score of TCM symptom, Min / total score of TCM symptom, Max / total score of TCM symptom, Md / change of total score of TCM symptom, Mean / change of total score of TCM symptom, Max / change of total score of TCM symptom, Md: scale not given here
Conditions: FAS
Description: 3508 patients who were in accordance with the diagnostic standards of AMI for 28 days to 2 years and differentiated as Qi deficiency and blood stagnation syndrome by TCM were studied. 0.5 g Chinese medicine composition prepared by the method of EXAMPLE 1 (Coded as QSYQ) was administrated half an hour after meal, 3 times per day.
They included the overall survival time, angina pectoris score, TCM symptom score and life quality score, where angina pectoris score, TCM symptom score and life quality score were evaluated at randomization, in 1st, 3rd, 6th, 9th, 12th month after treatment and 18th month after follow-up.
The analysis method referred to the angina pectoris score.

[1] = 12 months after treatment-baseline

With `CC(=O)Oc1ccccc1C(=O)O` [Control group, aspirine] the “change of palpitation 3, number of patients” value [1] was 8, the “change of palpitation 3, percent of patients” value [1] was “(0.47%)” and the “change of palpitation −1, percent of patients” value [1] was “(6.55%)”. The “change of palpitation −2, number of patients” value [1] was 4, the “change of palpitation −2, percent of patients” value [1] was “(0.23%)” and the “change of palpitation −3, number of patients” value [1] was 0. The “change of palpitation −3, percent of patients” value [1] was “(0.00%)”, the “change of spontaneous perspiration 0, number of patients” value [1] was 837 and the “change of spontaneous perspiration 0, percent of patients” value [1] was “(48.98%)”. The “change of spontaneous perspiration 1, number of patients” value [1] was 550, the “change of spontaneous perspiration 1, percent of patients” value [1] was “(32.18%)” and the “change of spontaneous perspiration 2, number of patients” value [1] was 139. For the same compound, the “change of spontaneous perspiration 2, percent of patients” value [1] was “(8.13%)”, the “change of spontaneous perspiration 3, number of patients” value [1] was 34 and the “change of spontaneous perspiration 3, percent of patients” value [1] was “(1.99%)”. For the same compound, the “change of spontaneous perspiration −1, number of patients” value [1] was 137, the “change of spontaneous perspiration −1, percent of patients” value [1] was “(8.02%)” and the “change of spontaneous perspiration −2, number of patients” value [1] was 12. The “change of spontaneous perspiration −2, percent of patients” value [1] was “(0.70%)”, the “change of spontaneous perspiration −3, number of patients” value [1] was 0 and the “change of spontaneous perspiration −3, percent of patients” value [1] was “(0.00%)”. The “change of total score of TCM symptom, Max” value [1] was 18.00, the “change of total score of TCM symptom, Md” value [1] was −5.00 and the “change of total score of TCM symptom, Mean” value [1] was −5.39. The “change of total score of TCM symptom, Min” value [1] was −33.00, the “distribution of total score of TCM symptom: Medium, number of patients” value (Baseline) was 817 and the “distribution of total score of TCM symptom: Medium, percentage of patients” value (Baseline) was “(47.83%)”. For the same compound, the “distribution of total score of TCM symptom: Mild, number of patients” value (Baseline) was 828, the “distribution of total score of TCM symptom: Mild, percentage of patients” value (Baseline) was “(48.48%)” and the “distribution of total score of TCM symptom: Severe, number of patients” value (Baseline) was 63. The “distribution of total score of TCM symptom: Severe, percentage of patients” value (Baseline) was “(3.69%)”, the “fatigue score 0, % of patients” value (Baseline) was “(18.42%)” and the “fatigue score 0, number of patients” value (Baseline) was 315. For the same compound, the “fatigue score 2, % of patients” value (Baseline) was “(60.94%)”, the “fatigue score 2, number of patients” value (Baseline) was 1042 and the “fatigue score 4, % of patients” value (Baseline) was “(16.90%)”. For the same compound, the “fatigue score 4, number of patients” value (Baseline) was 289, the “fatigue score 6, % of patients” value (Baseline) was “(3.74%)” and the “fatigue score 6, number of patients” value (Baseline) was 64. The “pale complexion score 0, number of patients” value (Baseline) was 572, the “pale complexion score 0, percent of patients” value (Baseline) was “(33.47%)” and the “pale complexion score 1, number of patients” value (Baseline) was 741. The “pale complexion score 1, percent of patients” value (Baseline) was “(43.36%)”, the “pale complexion score 2, number of patients” value (Baseline) was 325 and the “pale complexion score 2, percent of patients” value (Baseline) was “(19.02%)”. The “pale complexion score 3, number of patients” value (Baseline) was 71, the “pale complexion score 3, percent of patients” value (Baseline) was “(4.15%)” and the “short breath score 0, % of patients” value (Baseline) was “(15.04%)”. The “short breath score 0, number of patients” value (Baseline) was 257, the “short breath score 3, % of patients” value (Baseline) was “(51.84%)” and the “short breath score 3, number of patients” value (Baseline) was 886. The “short breath score 6, % of patients” value (Baseline) was “(31.19%)”, the “short breath score 6, number of patients” value (Baseline) was 533 and the “short breath score 9, % of patients” value (Baseline) was “(1.93%)”. For the same compound, the “short breath score 9, number of patients” value (Baseline) was 33, the “distribution of total score of TCM symptom: Medium, number of patients” value (Follow-up) was 218 and the “distribution of total score of TCM symptom: Medium, percentage of patients” value (Follow-up) was “(15.29%)”. For the same compound, the “distribution of total score of TCM symptom: Mild, number of patients” value (Follow-up) was 1205, the “distribution of total score of TCM symptom: Mild, percentage of patients” value (Follow-up) was “(84.50%)” and the “distribution of total score of TCM symptom: Severe, number of patients” value (Follow-up) was 3. The “distribution of total score of TCM symptom: Severe, percentage of patients” value (Follow-up) was “(0.21%)”, the “fatigue score 0, % of patients” value (Follow-up) was “(42.76%)” and the “fatigue score 0, number of patients” value (Follow-up) was 611. The “fatigue score 2, % of patients” value (Follow-up) was “(53.11%)”, the “fatigue score 2, number of patients” value (Follow-up) was 759 and the “fatigue score 4, % of patients” value (Follow-up) was “(3.92%)”. The “fatigue score 4, number of patients” value (Follow-up) was 56, the “fatigue score 6, % of patients” value (Follow-up) was “(0.21%)” and the “fatigue score 6, number of patients” value (Follow-up) was 3. The “pale complexion score 0, number of patients” value (Follow-up) was 882, the “pale complexion score 0, percent of patients” value (Follow-up) was “(61.72%)” and the “pale complexion score 1, number of patients” value (Follow-up) was 465. For the same compound, the “pale complexion score 1, percent of patients” value (Follow-up) was “(32.54%)”, the “pale complexion score 2, number of patients” value (Follow-up) was 76 and the “pale complexion score 2, percent of patients” value (Follow-up) was “(5.32%)”. The “pale complexion score 3, number of patients” value (Follow-up) was 6, the “pale complexion score 3, percent of patients” value (Follow-up) was “(0.42%)” and the “palpitation score 0, number of patients” value (Follow-up) was 631. The “palpitation score 0, percent of patients” value (Follow-up) was “(44.16%)”, the “palpitation score 2, number of patients” value (Follow-up) was 697 and the “palpitation score 2, percent of patients” value (Follow-up) was “(48.78%)”. For the same compound, the “palpitation score 4, number of patients” value (Follow-up) was 95, the “palpitation score 4, percent of patients” value (Follow-up) was “(6.65%)” and the “palpitation score 6, number of patients” value (Follow-up) was 6. The “palpitation score 6, percent of patients” value (Follow-up) was “(0.42%)”, the “short breath score 0, % of patients” value (Follow-up) was “(35.62%)” and the “short breath score 0, number of patients” value (Follow-up) was 509. For the same compound, the “short breath score 2, % of patients” value (Follow-up) was “(0.07%)”, the “short breath score 2, number of patients” value (Follow-up) was 1 and the “short breath score 3, % of patients” value (Follow-up) was “(54.51%)”. For the same compound, the “short breath score 3, number of patients” value (Follow-up) was 779, the “short breath score 6, % of patients” value (Follow-up) was “(9.59%)” and the “short breath score 6, number of patients” value (Follow-up) was 137. The “short breath score 9, % of patients” value (Follow-up) was “(0.21%)”, the “short breath score 9, number of patients” value (Follow-up) was 3 and the “spontaneous perspiration score 0, number of patients” value (Follow-up) was 767. For the same compound, the “spontaneous perspiration score 0, percent of patients” value (Follow-up) was “(53.71%)”, the “spontaneous perspiration score 1, number of patients” value (Follow-up) was 595 and the “spontaneous perspiration score 1, percent of patients” value (Follow-up) was “(41.67%)”. For the same compound, the “spontaneous perspiration score 2, number of patients” value (Follow-up) was 62, the “spontaneous perspiration score 2, percent of patients” value (Follow-up) was “(4.34%)” and the “spontaneous perspiration score 3, number of patients” value (Follow-up) was 4. The “spontaneous perspiration score 3, percent of patients” value (Follow-up) was “(0.28%)”, the “total score of TCM symptom, Max” value (Follow-up) was 32.00 and the “total score of TCM symptom, Md” value (Follow-up) was 7.00. The “total score of TCM symptom, Mean” value (Follow-up) was 7.71, the “total score of TCM symptom, Min” value (Follow-up) was 0.00 and the “change of fatigue 0, % of patients” value (Follow-up-baseline) was “(42.67%)”. For the same compound, the “change of fatigue 0, number of patients” value (Follow-up-baseline) was 608, the “change of fatigue 2, % of patients” value (Follow-up-baseline) was “(37.68%)” and the “change of fatigue 2, number of patients” value (Follow-up-baseline) was 537. The “change of fatigue 4, % of patients” value (Follow-up-baseline) was “(11.09%)”, the “change of fatigue 4, number of patients” value (Follow-up-baseline) was 158 and the “change of fatigue 6, % of patients” value (Follow-up-baseline) was “(2.11%)”. For the same compound, the “change of fatigue 6, number of patients” value (Follow-up-baseline) was 30, the “change of fatigue −2, % of patients” value (Follow-up-baseline) was “(6.11%)” and the “change of fatigue −2, number of patients” value (Follow-up-baseline) was 87. For the same compound, the “change of fatigue −4, % of patients” value (Follow-up-baseline) was “(0.35%)”, the “change of fatigue −4, number of patients” value (Follow-up-baseline) was 5 and the “change of pale complexion 0, number of patients” value (Follow-up-baseline) was 950. The “change of pale complexion 0, percent of patients” value (Follow-up-baseline) was “(66.95%)”, the “change of pale complexion 1, number of patients” value (Follow-up-baseline) was 430 and the “change of pale complexion 1, percent of patients” value (Follow-up-baseline) was “(30.30%)”.
